In patent US20180299431A1, “Explant Assay to Determine the Potential for Compositions to Promote or to Inhibit Neural Tube Defects” (Board of Supervisors of Louisiana State University and …, priority 2015, published 2018):

Assays:
diabetic NOD pregnancies = assay: NOD diabetic pregnancies and folinic acid supplementation; format: in vivo, mouse
Description: All animal experiments were performed with prior approval from the Pennington Biomedical Research Center IACUC, and were conducted in accordance with the “Guide for the care and use of laboratory animals” of the United States National Institutes of Health. Animals were housed with a 12-hour light/dark cycle, with access to food and water ad libitum. Mice of the Non-Obese Diabetic strain (NOD/ShiLtJ, The Jackson Laboratory, Bar Harbor, Me.; sometimes referred to as “NOD” mice), as well as male mice of strain FVB were kept on Purina™ 5001 diet (calories provided by: Protein, 28.5%; Fat, 13.5%; Carbohydrate, 58%. LabDiet, Purina Mills Inc., Gray Summit, Mo.). Females of strain FVB were kept on Purina 5015 diet (calories provided by: Protein, 19.8%; Fat, 25.3%; Carbohydrate, 54.8%). Blood glucose levels were monitored weekly in NOD mice. Once blood glucose exceeded 250 mg/dl, females were considered diabetic, and were then used for mating and production of embryos. Diabetic as well as normoglycemic NOD female mice were mated to normoglycemic NOD male mice; once NOD males became hyperglycemic, they were retired from the experiment and were no longer used. Supplementation with folinic acid (12.5 mg/kg body weight, once per week by intraperitoneal injection) was initiated at the age of 10 weeks in 56 NOD females. […]

[1] = system: STZ-induced diabetic mouse pregnancies; details: cited from earlier work

Row | Structure (SMILES) | NTD incidence (in words) (diabetic NOD pregnancies; NOD strain, folinic acid supplementation) | incidence of neural tube defects in embryos (diabetic NOD pregnancies; diabetic NOD pregnancies, gestation day 10.5, 12.5 mg/kg once per week i.p., 17 NTDs in 81 embryos, unsupplemented 40.2%, Fisher's Exact Test p=0.006) | effect on NTDs (in words) [1]
1 | Nc1nc(=O)c2c([nH]1)NCC(CNc1ccc(C(=O)N[C@@H](CCC(=O)O)C(=O)O)cc1)N2C=O (mixture of isomers) [folinic acid] | reduced | 21% | –
2 | Nc1nc2ncc(CNc3ccc(C(=O)N[C@@H](CCC(=O)O)C(=O)O)cc3)nc2c(=O)[nH]1 [folic acid] | – | – | beneficial effects
